According to patent US9695155B2, “Herbicidal substituted pyrimidinyloxy benzene compounds” (E. I. DU PONT DE NEMOURS AND COMPANY, priority 2013, dated 2017):

What was measured:
[1] = system: barnyardgrass; experiment: Test A preemergence; format: in vivo, Echinochloa crus-galli
How it was run: (§1)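 Scoring: eye-based comparison with untreated controls, 0 for no effect through 100 for complete control, at about day 10. Treatments: directed soil spray preemergence; foliar spray postemergence on 2–10 cm plants at the one- to two-leaf stage. Medium: loam soil with sand.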

[2] = system: pigweed; experiment: Test A postemergence; format: in vivo, Amaranthus retroflexus
How it was run: as §1

[3] = system: rice; experiment: Test B flooded paddy test; format: in vivo, Oryza sativa; conditions: Flood, 250 g ai/ha, 0 to 100 scale where 0 is no effect and 100 is complete control
How it was run: (§2)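 Visual ratings on a 0 to 100 scale, where 100 means complete control, compared treated plants with controls after 13 to 15 days in a greenhouse. Treatment went into paddy water 3 cm deep over the soil, applied to plants at the 2-leaf stage.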

[4] = system: sedge, umbrella; experiment: Test B flooded paddy test; format: in vivo, Cyperus difformis; conditions: Flood, 250 g ai/ha, 0 to 100 scale where 0 is no effect and 100 is complete control
How it was run: as §2

[5] = system: blackgrass; experiment: Test C postemergence; format: in vivo, Alopecurus myosuroides
How it was run: (§3)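 Greenhouse herbicide screen. Pre: seeded loam/sand, sprayed at planting. Post: 1–4 leaf plants (2–18 cm) in peat-based mix. Formulation: solvent mixture + surfactant, non-phytotoxic. Readout: visual % control vs untreated, 13–15 d; dash = not tested.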

[6] = system: Italian ryegrass; experiment: Test C postemergence; format: in vivo, Lolium multiflorum; conditions: for Ryegrass, Italian plant response rating: 31 g ai/ha
How it was run: as §3

[7] = system: galium; experiment: Test C postemergence; format: in vivo, Galium aparine
How it was run: as §3

[8] = system: large (Lg) crabgrass; experiment: Test C postemergence; format: in vivo, Digitaria sanguinalis
How it was run: as §3

[9] = system: lambsquarters; experiment: Test C postemergence; format: in vivo, Chenopodium album; conditions: for Lambsquarters plant response rating: 31 g ai/ha
How it was run: as §3

[10] = system: yellow nutsedge; experiment: Test C postemergence; format: in vivo, Cyperus esculentus; conditions: for Nutsedge, Yellow plant response rating: 31 g ai/ha
How it was run: as §3

[11] = system: ragweed; experiment: Test C postemergence; format: in vivo, Ambrosia elatior; conditions: for Ragweed plant response rating: 31 g ai/ha
How it was run: as §3

[12] = system: soybean; experiment: Test C postemergence; format: in vivo, Glycine max; conditions: for Soybean plant response rating: 31 g ai/ha
How it was run: as §3

[13] = system: barnyardgrass; experiment: Test C postemergence; format: in vivo, Echinochloa crus-galli
How it was run: as §3

[14] = postemergence, visual rating, scale 0 to 100 (0 no effect, 100 complete control), 13 to 15 days
[15] = 500 g ai/ha, 0 to 100 scale where 0 is no effect and 100 is complete control
[16] = 16 g ai/ha, postemergence, 0 is no effect, 100 is complete control
[17] = 31 g ai/ha, postemergence, visual rating, scale 0 to 100 (0 no effect, 100 complete control), 13 to 15 days
[18] = 125 g ai/ha, postemergence, visual rating, scale 0 to 100 (0 no effect, 100 complete control)
[19] = Postemergence, 62 g ai/ha, scale 0 to 100 (0 no effect, 100 complete control), 13 to 15 days

## Clc1cnc(Oc2ccccc2-n2cc(C3CC3)nn2)nc1 [Compound 160, 5-chloro-2-[2-(4-cyclopropyl-1H-1,2,3-triazol-1-yl)phenoxy]pyrimidine]
[1]; Echinochloa crus-galli, pre-emergence, 240 h, 1000 g ai/ha, 0 to 100 scale, 0 no effect, 100 complete control, approx. 10 days, read-out: Barnyardgrass plant response rating
  pest or weed control at 1000 g/ha: 100%
[2]; Amaranthus retroflexus, post-emergence, 240 h, 1000 g ai/ha, 0 to 100 scale, 0 no effect, 100 complete control, read-out: Plant response rating Pigweed
  pest or weed control at 1000 g/ha: 100%
[3]; Oryza sativa, read-out: Plant response rating, Rice
  plant injury at 250 g/ha: 35%
[4]; Cyperus difformis, read-out: Plant response rating, Sedge, Umbrella
  pest or weed control at 250 g/ha: 75%
[5]; Alopecurus myosuroides, post-emergence, 16 g ai/ha, postemergence, 0 is no effect, 100 is complete control, read-out: Plant response rating (0 to 100), Blackgrass
  pest or weed control at 16 g/ha: 0%
[5]; Alopecurus myosuroides, post-emergence, 31 g ai/ha, postemergence, visual rating, scale 0 to 100 (0 no effect, 100 complete control), 13 to 15 days, read-out: Blackgrass plant response rating
  pest or weed control at 31 g/ha: 0%
[5]; Alopecurus myosuroides, post-emergence, 125 g ai/ha, postemergence, visual rating, scale 0 to 100 (0 no effect, 100 complete control), read-out: Plant response rating, Blackgrass
  pest or weed control at 125 g/ha: 15%
[5]; Alopecurus myosuroides, post-emergence, Postemergence, 62 g ai/ha, scale 0 to 100 (0 no effect, 100 complete control), read-out: Plant response rating, Blackgrass
  pest or weed control at 62 g/ha: 5%
[6]; [14]
  Ryegrass, Italian plant response rating: 0
[6]; Lolium multiflorum, post-emergence, 16 g ai/ha, postemergence, 0 is no effect, 100 is complete control, read-out: Plant response rating (0 to 100), Ryegrass, Italian
  pest or weed control at 16 g/ha: 0%
[6]; Lolium multiflorum, post-emergence, 125 g ai/ha, postemergence, visual rating, scale 0 to 100 (0 no effect, 100 complete control), read-out: Plant response rating, Ryegrass, Italian
  pest or weed control at 125 g/ha: 5%
[6]; Lolium multiflorum, post-emergence, Postemergence, 62 g ai/ha, scale 0 to 100 (0 no effect, 100 complete control), read-out: Plant response rating, Ryegrass, Italian
  pest or weed control at 62 g/ha: 0%
[7]; Galium, post-emergence, 16 g ai/ha, postemergence, 0 is no effect, 100 is complete control, read-out: Plant response rating (0 to 100), Galium
  pest or weed control at 16 g/ha: 80%
[7]; Galium, post-emergence, 31 g ai/ha, postemergence, visual rating, scale 0 to 100 (0 no effect, 100 complete control), 13 to 15 days, read-out: Galium plant response rating
  pest or weed control at 31 g/ha: 80%
[7]; Galium, post-emergence, 125 g ai/ha, postemergence, visual rating, scale 0 to 100 (0 no effect, 100 complete control), read-out: Plant response rating, Galium
  pest or weed control at 125 g/ha: 85%
[7]; Galium, post-emergence, Postemergence, 62 g ai/ha, scale 0 to 100 (0 no effect, 100 complete control), read-out: Plant response rating, Galium
  pest or weed control at 62 g/ha: 95%
[8]; Digitaria sanguinalis, post-emergence, 16 g ai/ha, postemergence, 0 is no effect, 100 is complete control, read-out: Plant response rating (0 to 100), Crabgrass, Large
  pest or weed control at 16 g/ha: 5%
[8]; Digitaria sanguinalis, post-emergence, 31 g ai/ha, postemergence, visual rating, scale 0 to 100 (0 no effect, 100 complete control), 13 to 15 days, read-out: Crabgrass, Large plant response rating
  pest or weed control at 31 g/ha: 5%
[8]; Digitaria sanguinalis, post-emergence, 125 g ai/ha, postemergence, visual rating, scale 0 to 100 (0 no effect, 100 complete control), read-out: Plant response rating, Crabgrass, Large
  pest or weed control at 125 g/ha: 10%
[8]; Digitaria sanguinalis, post-emergence, Postemergence, 62 g ai/ha, scale 0 to 100 (0 no effect, 100 complete control), read-out: Plant response rating, Crabgrass, Large
  pest or weed control at 62 g/ha: 5%
[9]; [14]
  Lambsquarters plant response rating: 65
[9]; Chenopodium album, post-emergence, 16 g ai/ha, postemergence, 0 is no effect, 100 is complete control, read-out: Plant response rating (0 to 100), Lambsquarters
  pest or weed control at 16 g/ha: 65%
[9]; Chenopodium album, post-emergence, 125 g ai/ha, postemergence, visual rating, scale 0 to 100 (0 no effect, 100 complete control), read-out: Plant response rating, Lambsquarters
  pest or weed control at 125 g/ha: 95%
[9]; Chenopodium album, post-emergence, Postemergence, 62 g ai/ha, scale 0 to 100 (0 no effect, 100 complete control), read-out: Plant response rating, Lambsquarters
  pest or weed control at 62 g/ha: 70%
[10]; [14]
  Nutsedge, Yellow plant response rating: 5
[10]; Cyperus, post-emergence, 16 g ai/ha, postemergence, 0 is no effect, 100 is complete control, read-out: Plant response rating (0 to 100), Nutsedge, Yellow
  pest or weed control at 16 g/ha: 5%
[10]; Cyperus, post-emergence, 125 g ai/ha, postemergence, visual rating, scale 0 to 100 (0 no effect, 100 complete control), read-out: Plant response rating, Nutsedge, Yellow
  pest or weed control at 125 g/ha: 5%
[10]; Cyperus, post-emergence, Postemergence, 62 g ai/ha, scale 0 to 100 (0 no effect, 100 complete control), read-out: Plant response rating, Nutsedge, Yellow
  pest or weed control at 62 g/ha: 5%
[11]; [14]
  Ragweed plant response rating: 45
[11]; Ambrosia artemisiifolia, post-emergence, 16 g ai/ha, postemergence, 0 is no effect, 100 is complete control, read-out: Plant response rating (0 to 100), Ragweed
  pest or weed control at 16 g/ha: 10%
[11]; Ambrosia artemisiifolia, post-emergence, 125 g ai/ha, postemergence, visual rating, scale 0 to 100 (0 no effect, 100 complete control), read-out: Plant response rating, Ragweed
  pest or weed control at 125 g/ha: 70%
[11]; Ambrosia artemisiifolia, post-emergence, Postemergence, 62 g ai/ha, scale 0 to 100 (0 no effect, 100 complete control), read-out: Plant response rating, Ragweed
  pest or weed control at 62 g/ha: 60%
[12]; [14]
  Soybean plant response rating: 55
[12]; Glycine max, post-emergence, 16 g ai/ha, postemergence, 0 is no effect, 100 is complete control
  Soybean plant response rating (crop injury, 0-100 scale) at 16 g/ha: 40%
[12]; Glycine max, post-emergence, 125 g ai/ha, postemergence, visual rating, scale 0 to 100 (0 no effect, 100 complete control), read-out: Plant response rating, Soybean
  Soybean plant response rating (crop injury, 0-100 scale) at 125 g/ha: 60%
[12]; Glycine max, post-emergence, Postemergence, 62 g ai/ha, scale 0 to 100 (0 no effect, 100 complete control)
  Soybean plant response rating (crop injury, 0-100 scale) at 62 g/ha: 60%
[13]; Echinochloa crus-galli, post-emergence, 16 g ai/ha, postemergence, 0 is no effect, 100 is complete control, read-out: Plant response rating (0 to 100), Barnyardgrass
  pest or weed control at 16 g/ha: 5%
[13]; Echinochloa crus-galli, post-emergence, 31 g ai/ha, postemergence, visual rating, scale 0 to 100 (0 no effect, 100 complete control), 13 to 15 days, read-out: Barnyardgrass plant response rating
  pest or weed control at 31 g/ha: 5%
[13]; Echinochloa crus-galli, post-emergence, 125 g ai/ha, postemergence, visual rating, scale 0 to 100 (0 no effect, 100 complete control), read-out: Plant response rating, Barnyardgrass
  pest or weed control at 125 g/ha: 5%
[13]; Echinochloa crus-galli, post-emergence, Postemergence, 62 g ai/ha, scale 0 to 100 (0 no effect, 100 complete control), read-out: Plant response rating, Barnyardgrass
  pest or weed control at 62 g/ha: 5%

## N#Cc1cn(-c2c(C#N)cccc2Oc2ncc(Cl)cn2)nn1 [Compound 273]
[1]; 125 g ai/ha
  Barnyardgrass plant response rating (0 to 100 scale, 0 is no effect, 100 is complete control): 70
[1]; [15]
  Barnyardgrass plant response rating: 90
[2]; 125 g ai/ha, 0 to 100 scale, 0 no effect, 100 complete control
  Plant response rating, Pigweed: 100
[2]; [15]
  Plant response rating, Pigweed: 100
[3]
  Plant response rating, Rice: 0
[4]
  Plant response rating, Sedge, Umbrella: 75
[5]; [16]
  Plant response rating (0 to 100), Blackgrass: 5
[5]; [17]
  Blackgrass plant response rating: 5
[5]; [18]
  Plant response rating, Blackgrass: 10
[5]; [19]
  Plant response rating, Blackgrass: 10
[6]; [16]
  Plant response rating (0 to 100), Ryegrass, Italian: 5
[6]; [14]
  Ryegrass, Italian plant response rating: 5
[6]; [18]
  Plant response rating, Ryegrass, Italian: 10
[6]; [19]
  Plant response rating, Ryegrass, Italian: 5
[7]; [16]
  Plant response rating (0 to 100), Galium: 55
[7]; [17]
  Galium plant response rating: 60
[7]; [18]
  Plant response rating, Galium: 80
[7]; [19]
  Plant response rating, Galium: 60
[8]; [16]
  Plant response rating (0 to 100), Crabgrass, Large: 5
[8]; [17]
  Crabgrass, Large plant response rating: 5
[8]; [18]
  Plant response rating, Crabgrass, Large: 10
[8]; [19]
  Plant response rating, Crabgrass, Large: 10
[9]; [16]
  Plant response rating (0 to 100), Lambsquarters: 25
[9]; [14]
  Lambsquarters plant response rating: 40
[9]; [18]
  Plant response rating, Lambsquarters: 80
[9]; [19]
  Plant response rating, Lambsquarters: 85
[10]; [16]
  Plant response rating (0 to 100), Nutsedge, Yellow: 10
[10]; [14]
  Nutsedge, Yellow plant response rating: 5
[10]; [18]
  Plant response rating, Nutsedge, Yellow: 25
[10]; [19]
  Plant response rating, Nutsedge, Yellow: 5
[11]; [16]
  Plant response rating (0 to 100), Ragweed: 30
[11]; [14]
  Ragweed plant response rating: 55
[11]; [18]
  Plant response rating, Ragweed: 80
[11]; [19]
  Plant response rating, Ragweed: 55
[12]; [16]
  Plant response rating (0 to 100), Soybean: 60
[12]; [14]
  Soybean plant response rating: 70
[12]; [18]
  Plant response rating, Soybean: 90
[12]; [19]
  Plant response rating, Soybean: 90
[13]; [16]
  Plant response rating (0 to 100), Barnyardgrass: 5
[13]; [17]
  Barnyardgrass plant response rating: 5
[13]; [18]
  Plant response rating, Barnyardgrass: 10
[13]; [19]
  Plant response rating, Barnyardgrass: 5
